Results on ten compounds are retold here after PubChem BioAssay (NCI).

Among the test systems are CAKI-1 renal; ACHN renal; SK-MEL-28 melanoma; MOLT-4 leukemia; A549 NSCLC; HCT-116 colon; M14 melanoma; COLO 205 colon; NCI-H23 lung; PC-3 prostate.
What all share (assay): NCI-60 cell line screen, 48 h

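Tested at 5 concentrations; 48 h exposure; 96-well plates; endpoints linearly interpolated, else capped at highest concentration. Here, GI50 denotes the concentration required for 50% inhibition of growth. TGI marks complete inhibition of growth.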

Take `O=C1NNC=Nc2ccc(cc2)S(=O)(=O)c2ccc(cc2)N=CNNC1=O`: the TGI in the experiment on CAKI-1 renal, in the experiment on ACHN renal, with SK-MEL-28 melanoma, in the experiment with MOLT-4 leukemia, in the experiment with A549 NSCLC and in the experiment with HCT-116 colon was > 100 µM throughout. Further, the TGI with M14 melanoma, in the experiment with COLO 205 colon, in the experiment on NCI-H23 lung and in the experiment on PC-3 prostate was > 100 µM throughout.

As for `O=NN(Cc1ccc(Cl)cc1)C(C(=O)O)c1ccccc1` (stereo not given), the TGI in the experiment on CAKI-1 renal, in the experiment on ACHN renal, in the experiment on SK-MEL-28 melanoma, in the experiment on MOLT-4 leukemia, in the experiment with A549 NSCLC and in the experiment with HCT-116 colon was > 100 µM throughout. For the same compound, the TGI in the experiment on M14 melanoma, in the experiment on COLO 205 colon, in the experiment with NCI-H23 lung and in the experiment on PC-3 prostate was > 100 µM in each case.

With `COc1ccc(C2=NN(C(=O)c3cc(OC)c(OC)c(OC)c3)C(c3ccc(C#N)cc3)C2)cc1OC` (stereo not given), the GI50 in the experiment with CAKI-1 renal was 0.412 µM; in the experiment on ACHN renal, 1.45 µM; in the experiment with SK-MEL-28 melanoma it was 1.3 µM; in the experiment on MOLT-4 leukemia it was 4.27 µM; with A549 NSCLC, 2.32 µM; in the experiment on HCT-116 colon, 1.63 µM. Besides, the GI50 with M14 melanoma is 1.8 µM; in the experiment on COLO 205 colon it was 1.47 µM; in the experiment with NCI-H23 lung it was 3.07 µM; in the experiment with PC-3 prostate it was 1.94 µM. For the same compound, the TGI with CAKI-1 renal was 7.15 µM; in the experiment with ACHN renal, > 66.5 µM; with SK-MEL-28 melanoma, > 55 µM; in the experiment on MOLT-4 leukemia it was > 100 µM; in the experiment with A549 NSCLC it was > 100 µM; with HCT-116 colon, > 44.2 µM. The TGI was 10.4 µM in the experiment on M14 melanoma, 4.03 µM in the experiment with COLO 205 colon, > 74 µM in the experiment on NCI-H23 lung and > 52.3 µM with PC-3 prostate.

`O=C(O)CCCCC(CCSCc1ccccc1)SCc1ccccc1` (stereo not given): the GI50 is > 77.5 µM with CAKI-1 renal; 51.1 µM with ACHN renal; 45.1 µM in the experiment with SK-MEL-28 melanoma; 47 µM with MOLT-4 leukemia; 43.5 µM in the experiment on A549 NSCLC; 37.7 µM in the experiment with HCT-116 colon. For the same compound, the GI50 in the experiment with M14 melanoma is 55.4 µM; with COLO 205 colon it was > 92.3 µM; with NCI-H23 lung, 33.5 µM; in the experiment on PC-3 prostate it was 49.1 µM. For the same compound, the TGI in the experiment with CAKI-1 renal, with ACHN renal, with SK-MEL-28 melanoma, in the experiment with MOLT-4 leukemia, in the experiment on A549 NSCLC and in the experiment on HCT-116 colon was > 100 µM each time. For the same compound, the TGI in the experiment with M14 melanoma, with COLO 205 colon, in the experiment on NCI-H23 lung and in the experiment with PC-3 prostate was > 100 µM each time.

`CC1CCC2(C(=O)O)CCC3(C)C(=CCC4C5(C)CC(O)C(O)C(C)(CO)C5C(O)CC43C)C2C1C` (stereo not given): the TGI was > 100 µM with CAKI-1 renal; > 100 µM with ACHN renal; 69 µM in the experiment with SK-MEL-28 melanoma; > 100 µM in the experiment with MOLT-4 leukemia; > 100 µM in the experiment on A549 NSCLC; > 24.3 µM in the experiment on HCT-116 colon. In addition, the TGI with M14 melanoma, with COLO 205 colon, with NCI-H23 lung and in the experiment with PC-3 prostate was > 100 µM in each case.

Turning to `CC1=C(C(=O)Nc2ccc3[nH]ncc3c2)C(c2ccc3ccccc3c2)CC(=O)N1` (stereo not given), the GI50 in the experiment with CAKI-1 renal is > 16.9 µM; with ACHN renal, > 25 µM; in the experiment with SK-MEL-28 melanoma, > 22.2 µM; in the experiment with MOLT-4 leukemia it was > 25 µM; in the experiment on A549 NSCLC, > 25 µM; in the experiment on HCT-116 colon, 14.1 µM. The GI50 with M14 melanoma was > 25 µM; with COLO 205 colon, 9.96 µM; with NCI-H23 lung, 19 µM; with PC-3 prostate it was > 25 µM. For the same compound, the TGI in the experiment on CAKI-1 renal, in the experiment on ACHN renal, in the experiment on SK-MEL-28 melanoma, in the experiment on MOLT-4 leukemia, in the experiment on A549 NSCLC and in the experiment with HCT-116 colon was > 25 µM each time. Moreover, the TGI in the experiment on M14 melanoma was > 25 µM; in the experiment on COLO 205 colon, > 21.2 µM; in the experiment on NCI-H23 lung, > 25 µM; in the experiment with PC-3 prostate, > 25 µM.

With `COc1cnc2cc(C(=O)O)c3c([N+](=O)[O-])cccc3c2c1`, the TGI in the experiment with CAKI-1 renal, in the experiment on ACHN renal, in the experiment on SK-MEL-28 melanoma, in the experiment on MOLT-4 leukemia, in the experiment on A549 NSCLC and with HCT-116 colon was > 100 µM throughout. The TGI in the experiment on M14 melanoma, with COLO 205 colon, in the experiment with NCI-H23 lung and in the experiment on PC-3 prostate was > 100 µM each time.

Turning to `CC1OC(O[C@H]2C[C@@H](O)[C@]3(CO)[C@H]4[C@H](O)C[C@]5(C)[C@@H](C6=CC(=O)OC6)CC[C@]5(O)[C@@H]4CC[C@]3(O)C2)C(O)C(O)C1O` (stereo not given in full), the GI50 was 17.7 µM in the experiment with CAKI-1 renal; 20.2 µM in the experiment with ACHN renal; 21.7 µM with SK-MEL-28 melanoma; 17.9 µM with MOLT-4 leukemia; 21.2 µM with A549 NSCLC; 19 µM in the experiment with HCT-116 colon. Besides, the GI50 was 27.7 µM in the experiment on M14 melanoma, 18.5 µM with COLO 205 colon, 21.5 µM in the experiment with NCI-H23 lung and 20.4 µM in the experiment on PC-3 prostate. Further, the TGI in the experiment on CAKI-1 renal worked out at 33.9 µM; in the experiment on ACHN renal, 35.5 µM; in the experiment with SK-MEL-28 melanoma it was 46.3 µM; in the experiment with MOLT-4 leukemia it was 41.8 µM; in the experiment on A549 NSCLC it was 39 µM; in the experiment with HCT-116 colon it was 33.7 µM. The TGI stood at 87.5 µM in the experiment with M14 melanoma, 33.7 µM in the experiment with COLO 205 colon, 41.8 µM in the experiment with NCI-H23 lung and 41.4 µM in the experiment with PC-3 prostate.

Turning to `Cc1nc2cccc([N+](=O)[O-])c2c(NCCCN(C)C)c1C`, the TGI in the experiment on CAKI-1 renal is > 100 µM; in the experiment on ACHN renal, > 100 µM; with SK-MEL-28 melanoma, > 100 µM; in the experiment on MOLT-4 leukemia, > 85.1 µM; with A549 NSCLC, > 100 µM; in the experiment on HCT-116 colon, 59 µM. Moreover, the TGI in the experiment on M14 melanoma is > 100 µM; in the experiment with COLO 205 colon, 39.5 µM; with NCI-H23 lung, > 31.6 µM; in the experiment with PC-3 prostate it was > 50.8 µM.

Turning to `CNC(=O)OCc1c(COC(=O)NC)c(-c2ccc(Cl)c(Cl)c2)n2c1SCC2`, the TGI is 23.9 µM with CAKI-1 renal; 17.6 µM in the experiment on ACHN renal; 37.3 µM in the experiment with SK-MEL-28 melanoma; 47.3 µM with MOLT-4 leukemia; > 88 µM with A549 NSCLC; 26 µM in the experiment on HCT-116 colon. Besides, the TGI in the experiment with M14 melanoma was 37.9 µM; in the experiment with COLO 205 colon it was 26.7 µM; in the experiment on NCI-H23 lung, 40.5 µM; in the experiment with PC-3 prostate, 55.1 µM.
